The record followed here is patent US20110046056A1, “APOA-1 PEPTIDE MIMETICS” (priority 2007, published 2011).

In series [1] the test system is human red blood cells. Kind of series: Red blood cell (RBC) lysis assay. Format: cell-based. As for the experimental part: The RBC lysis assay has been described previously (Kurtz, M. B. et al. (1994); Wang, J. et al., PNAS 104 (18), 7612-7616 (2007)). Basically, human erythrocytes are collected in a vacutainer tube with EDTA from human donors. Two ml of the freshly drawn whole blood is added to 6 ml of sterile saline and gently mixed then centrifuged at 5° C. for 5 minutes at 2000 rpm. The supernatant is discarded and the human red blood cells are resuspended with 6 ml of sterile saline and centrifuged again at 5° C. for 5 minutes at 2000 rpm. This procedure is repeated 2 times. A three percent suspension of the washed red blood cells is prepared by adding 0.3 ml of the washed red blood cells to 9.7 ml of sterile saline. The final concentration of test peptide ranging 160-2.5 (or 150-2.3) μM in 100 μl sterile saline containing 3.2% Me2SO is prepared in 96-well MICROTEST U-bottom plates (BECTON DICKINSON, BD-353227). The RBC lysis is initiated by addition of 5 μl of 3% washed human red blood cell suspension to the each well in the plates. The plates are incubated overnight at room temperature, then centrifuged at 2000 rpm for 5 minutes and read immediately. Hemolysis of red blood cells is indicated by complete or partial clearing (lysis) of the supernatants with either no or a rough RBC pellet in the bottom of the wells. […]

The target in series [2] is T1, ABCA1 cholesterol transporter protein (Mus musculus, UniProt P41233).
T1 construct: endogenous in cells
Kind of series: ABCA1-dependent cholesterol efflux from RAW mouse macrophage cells (in vitro RCT assay). It is filed as cell-based. The conditions noted are these: read-out: EC50 in the cholesterol efflux assay (RCT in vitro assay). The method in brief:
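RAW macrophages labelled with ^3H-cholesterol (5 μCi/ml) 24 h, equilibrated overnight serum-free, then given eight-point peptide titrations 24 h with or without 150 μM CPT-cAMP. Percent efflux = medium counts/(medium + lysate); plain-medium efflux subtracted from cAMP value gives ABCA1-dependent efflux, fitted for EC50.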

The test system of series [3] is atheroma in ApoE-deficient mice. Description: Atheroma volume in ApoE-deficient mice by magnetic resonance imaging. It is filed as in vivo, mouse. The conditions noted are these: 20 mg per kg subcutaneously once daily; after 5 weeks of treatment; compared to vehicle-treated apoE-deficient mice; MRI. An excerpt: The ultimate goal of developing these mimetic peptides was for the acute and chronic treatment of atherosclerotic lesions in human patients.

Molecules are shown by their SMILES. Where a SMILES comes first, the peptide text is derived from it. [ ]: non-standard residue; d: D form. Ala(5-hexenyl) = C=CCCCCC[C@H](N)C(=O)O

T1 sequence (P41233 whole entry): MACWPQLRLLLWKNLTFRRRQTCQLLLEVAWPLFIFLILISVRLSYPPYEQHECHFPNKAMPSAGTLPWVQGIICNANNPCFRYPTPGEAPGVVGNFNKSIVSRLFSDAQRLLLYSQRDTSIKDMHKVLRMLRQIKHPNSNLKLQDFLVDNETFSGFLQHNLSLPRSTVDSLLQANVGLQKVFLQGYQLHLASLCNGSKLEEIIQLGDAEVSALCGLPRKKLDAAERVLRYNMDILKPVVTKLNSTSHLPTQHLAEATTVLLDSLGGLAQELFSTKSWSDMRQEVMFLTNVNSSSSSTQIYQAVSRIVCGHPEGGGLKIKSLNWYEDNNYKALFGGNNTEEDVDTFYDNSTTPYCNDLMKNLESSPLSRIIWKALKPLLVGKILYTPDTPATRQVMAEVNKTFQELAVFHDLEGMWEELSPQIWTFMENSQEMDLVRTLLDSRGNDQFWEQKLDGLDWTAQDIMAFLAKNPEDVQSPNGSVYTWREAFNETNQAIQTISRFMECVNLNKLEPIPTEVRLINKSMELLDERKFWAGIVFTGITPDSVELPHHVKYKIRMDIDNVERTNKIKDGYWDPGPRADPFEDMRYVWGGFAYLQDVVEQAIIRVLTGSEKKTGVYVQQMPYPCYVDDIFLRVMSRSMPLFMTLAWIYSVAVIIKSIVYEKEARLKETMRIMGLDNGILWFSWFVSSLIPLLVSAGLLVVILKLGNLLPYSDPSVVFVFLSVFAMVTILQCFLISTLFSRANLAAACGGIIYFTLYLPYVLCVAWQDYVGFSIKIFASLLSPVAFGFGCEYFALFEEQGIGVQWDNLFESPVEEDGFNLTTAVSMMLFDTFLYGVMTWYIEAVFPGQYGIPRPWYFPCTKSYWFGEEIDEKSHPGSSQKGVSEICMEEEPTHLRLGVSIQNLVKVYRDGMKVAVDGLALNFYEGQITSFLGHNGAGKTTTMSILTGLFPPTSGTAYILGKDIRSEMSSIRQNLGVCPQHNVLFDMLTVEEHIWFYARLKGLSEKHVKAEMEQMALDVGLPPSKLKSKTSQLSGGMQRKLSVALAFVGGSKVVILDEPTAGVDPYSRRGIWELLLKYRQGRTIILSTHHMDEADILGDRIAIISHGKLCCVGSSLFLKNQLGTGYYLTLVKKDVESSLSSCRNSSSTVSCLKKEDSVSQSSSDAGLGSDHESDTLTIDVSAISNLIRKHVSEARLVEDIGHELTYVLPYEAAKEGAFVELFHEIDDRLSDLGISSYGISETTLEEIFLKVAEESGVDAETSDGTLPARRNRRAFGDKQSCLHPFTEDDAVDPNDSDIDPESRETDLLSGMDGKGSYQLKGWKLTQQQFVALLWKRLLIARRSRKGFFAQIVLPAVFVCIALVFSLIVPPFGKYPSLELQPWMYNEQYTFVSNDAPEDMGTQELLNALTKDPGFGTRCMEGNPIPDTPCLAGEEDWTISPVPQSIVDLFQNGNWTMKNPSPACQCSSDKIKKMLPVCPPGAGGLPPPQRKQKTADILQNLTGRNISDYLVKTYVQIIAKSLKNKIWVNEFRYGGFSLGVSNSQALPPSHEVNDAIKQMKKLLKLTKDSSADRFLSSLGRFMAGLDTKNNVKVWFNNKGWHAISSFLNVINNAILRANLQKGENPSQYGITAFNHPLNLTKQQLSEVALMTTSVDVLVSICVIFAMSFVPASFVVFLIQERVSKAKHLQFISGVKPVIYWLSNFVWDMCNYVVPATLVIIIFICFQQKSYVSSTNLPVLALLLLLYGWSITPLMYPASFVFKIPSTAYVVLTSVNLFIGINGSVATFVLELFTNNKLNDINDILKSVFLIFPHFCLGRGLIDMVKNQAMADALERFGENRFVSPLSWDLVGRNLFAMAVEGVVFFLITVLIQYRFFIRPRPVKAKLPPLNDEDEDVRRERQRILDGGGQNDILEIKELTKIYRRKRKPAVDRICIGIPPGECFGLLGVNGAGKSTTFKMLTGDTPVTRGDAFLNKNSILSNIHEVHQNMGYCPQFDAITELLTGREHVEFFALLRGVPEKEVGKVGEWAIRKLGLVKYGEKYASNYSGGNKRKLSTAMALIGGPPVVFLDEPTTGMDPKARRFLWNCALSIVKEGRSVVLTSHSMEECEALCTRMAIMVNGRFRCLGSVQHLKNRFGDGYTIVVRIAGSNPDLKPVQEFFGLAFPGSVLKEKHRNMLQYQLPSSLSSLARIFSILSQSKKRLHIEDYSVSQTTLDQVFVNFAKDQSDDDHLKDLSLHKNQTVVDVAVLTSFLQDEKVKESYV

As to `O=C(N[C@H](CO)[C@H](O)c1ccc([N+](=O)[O-])cc1)C(Cl)Cl` [Chloramphenicol], in series [1], the “minimum lytic concentration (MLC)” value is over 64 µg/mL.

As for `C=CCCCCC[C@H](NC(=O)[C@H](CCC(=O)O)NC(=O)[C@H](CC(N)=O)NC(=O)[C@H](CC(C)C)NC(=O)[C@H](CCCCN)NC(=O)[C@H](CCC(=O)O)NC(=O)[C@H](CCCNC(=N)N)NC(=O)[C@H](CCCCCC=C)NC(=O)[C@H](CCC(=O)O)NC(=O)[C@H](CC(=O)O)NC(=O)[C@H](CC(C)C)NC(=O)[C@@H](NC(=O)[C@@H]1CCCN1C(C)=O)C(C)C)C(=O)N[C@@H](CC(C)C)C(=O)N[C@@H](CCC(=O)O)C(=O)N[C@@H](C)C(=O)N[C@@H](CC(C)C)C(=O)N[C@@H](CCCCN)C(=O)N[C@@H](CCC(N)=O)C(=O)N[C@@H](CCCCN)C(=O)N[C@@H](CC(C)C)C(=O)N[C@@H](CCCCN)C(N)=O` [SEQ ID NO 43, PVLDES7HREKLNES7HLEALKQKLK] (Ac-PVLDE[Ala(5-hexenyl)]REKLNE[Ala(5-hexenyl)]LEALKQKLK-NH2; C-terminus assumed), in series [2], the EC50 (usually the concentration giving half of the maximal effect) is 300 nM. The atheroma volume result in series [3] is “significant reduction”.
